In patent US20020086860A1, “[1,4]Diazepino [6,7,1-jk] carbazoles and derivatives” (American Home Products Corporation, priority 2000, published 2002):
Where a name gives a salt, the structure may show the parent alone. Read-outs that look alike come from different tables or passages of the source.

Tests used:
[1] = molecular target: T1, human 5-hydroxytryptamine2C (h5HT2C) receptor (Homo sapiens, UniProt P28335); assay: 5HT2C Receptor Binding Test Procedure ([125I]DOI displacement, CHO cell membranes)
T1 construct: expressed in transfected cells; host or cells: CHO (Chinese Hamster Ovary) cells; membrane preparation
T1 sequence (P28335 33-458): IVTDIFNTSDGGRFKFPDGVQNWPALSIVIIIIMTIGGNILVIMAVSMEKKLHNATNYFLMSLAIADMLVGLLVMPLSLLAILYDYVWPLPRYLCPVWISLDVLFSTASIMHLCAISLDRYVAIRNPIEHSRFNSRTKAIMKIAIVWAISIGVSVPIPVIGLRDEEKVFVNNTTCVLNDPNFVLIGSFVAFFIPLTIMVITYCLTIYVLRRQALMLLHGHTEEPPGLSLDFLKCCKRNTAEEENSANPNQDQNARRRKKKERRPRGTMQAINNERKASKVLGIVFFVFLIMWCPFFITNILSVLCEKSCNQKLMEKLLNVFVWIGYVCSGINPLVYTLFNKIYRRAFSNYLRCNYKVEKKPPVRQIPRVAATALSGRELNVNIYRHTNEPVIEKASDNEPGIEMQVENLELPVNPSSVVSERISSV

[2] = molecular target: T2, human 5-HT2C receptor (Homo sapiens, UniProt P28335); assay: Stimulation of [3H] Inositol Monophosphate production by 5HT2C agonists in transfected CHO cells; conditions: for Emax: CHO, read-out: 5HT2C % Emax (5HT, 100%)
T2 sequence (P28335 33-458): T1 sequence (P28335 33-458)
Protocol: One (1) ml of maintenance medium containing 1 μCi/ml myo-[^3H] inositol was added to each well. After 48 hours labeling, the cells were washed once with 0.5 ml DMEM containing 25 mM HEPES and 10 mM LiCl, then preincubated with the medium for 30 min (antagonists were included in this period if tested). At the end of the preincubation, the medium was removed, the cells were then incubated with test compounds (in presence of antagonists if needed) for 30 min. The reaction was terminated by removal of the incubation solution and addition of 0.5 ml ice-cold 5% PCA, followed by 15 to 30 min incubation on ice. 200 μl of 0.5 M Tes/1.5 M K2CO3 was added to each well to neutralize to pH 7, and plates were left on ice for another 15 to 30 min to precipitate all salts. The liquid and solid phases were separated by centrifugation.
A portion (350 μl) of the upper aqueous phase was applied to Dowex AG-1×8 (formate form, 100-200 mesh) columns. The columns were then washed stepwise with 10 ml of water and 10 ml of 25 mM ammonium formate to remove free myo-[^3H]inositol and deacylated phosphoinositol, respectively. Finally 10 ml of 0.2 M ammonium formate solution was applied to the columns to elute [^3H] inositol monophosphate ([^3H] IP1) directly into scintillation vials. Of this eluate, 1 ml was used to determine radioactivity by scintillation counting.
A 3-parameter logistic function is used to generate estimate of EC50/IC50.

[3] = system: several animal species and humans; conditions: Cowen et al. 1995; cited from earlier work
[4] = system: male Sprague-Dawley rats; assay: Effects of Compounds on Feeding Behavior in Rats (food intake, 24 hr fast); type: in vivo; conditions: Rattus norvegicus, ip, dose giving 50% reduction in food intake, read-out: ED50 (mg/kg), 5HT2C Food Intake in Rats
Protocol: Effects of Compounds on Feeding Behavior in Rats
Eight (8) male Sprague-Dawley rats weighing 150-180 g were separated into individual cages and acclimated to a powdered diet for 2 weeks. During this period and throughout the test procedure, the food cup and the animals were weighed daily. Following the acclimation period, animals were fasted for 24 hours and then injected with either vehicle or one of 4 doses of the test compound. Food intake was assessed at 2 and 24 hours following compound administration. Compounds to be evaluated were injected 1-2× per week until all animals had received all doses of the test compound. The order of doses were chosen using to a modified Latin Square design. Additional studies may be conducted in satieted rats at the start of the dark cycle. Compounds were injected i.p, s.c. or p.o. At the end of the study effects of the test compound on food intake was evaluated using a repeated measures ANOVA. Data were collected were 2 hour food intake (g). Data were subjected to one-way ANOVA with posthoc t-tests to assess group differences. Where appropriate, ED50 values were calculated.

[5] = read-out: Ki value and 95% confidence interval (reference compounds)

## c1cc2c3c(c1)C1CCCCC1N3CCNC2 (centres unmarked) (as salt: hydrochloride) [Example 2, 1,2,3,4,7b,8,9,10,11,11a-Decahydro-[1,4]diazepino[6,7,1-jk]carbazole]
other
  melting point: 265 to 269 °C

## Clc1cc2c3c(c1)c1c(n3CCNC2)CCCC1 [Example 5, 6-Chloro-1,2,3,4,8,9,10,11-octahydro[1,4]diazepino[6,7,1-jk]cabazole]
[1]
  Ki: 358 nM

## CC1(C)Cc2c(c3cccc4c3n2CCNC4)C(C)(C)C1 [Example 3, 8,8,10,10-Tetramethyl-1,2,3,4,8,9,10,11-octahydro[1,4]diazepino[6,7,1-jk]carbazole]
[1]
  Ki: 73 nM

## CSc1ccc2c(c1)C(N1CCN(C)CC1)Cc1ccccc1S2 (centres unmarked) [Methiothepin]
[1]; [125I]DOI binding, h5HT2C in CHO membranes, 95% confidence interval in brackets, read-out: Ki value and 95% confidence interval (reference compounds)
  Ki: 4.6 nM

## Cc1nc2sccn2c(=O)c1CCN1CCC(=C(c2ccc(F)cc2)c2ccc(F)cc2)CC1 [Ritanserin]
[1]; [5]
  Ki: 2 nM

## CCN1CCn2c3c(c4cc(Cl)cc(c42)C1)CCCC3 [Example 9, 6-Chloro-3-ethyl-1,2,3,4,8,9,10,11-octahydro[1,4]diazepino[6,5,4-jk]carbazole]
[1]
  5HT2C Affinity DOI/Agonist binding, inhibition @ 1 μM: 55%

## COc1cc(CC(C)N)c(OC)cc1I (centres unmarked) [[^125I] DOI]
[1]; read-out: dissociation constant, KD of [125I] DOI at the human serotonin 5HT2C receptor, saturation binding with increasing concentrations of [125I] DOI
  Kd: 0.4 nM

## c1cc2c3c(c1)C1CCCCC1N3CCNC2 (centres unmarked) [Example 2, 1,2,3,4,7b,8,9,10,11,11a-Decahydro-[1,4]diazepino[6,7,1-jk]carbazole]
[1]
  Ki: 92 nM
[2]
  EC50: 207 nM
  Emax: 70%

## Clc1cccc(N2CCNCC2)c1 [mCPP, meta-chlorophenylpiperazine]
[3]
  effect on food intake: decreases food intake

## CN1CCN(C2=Nc3ccccc3Oc3ccc(Cl)cc32)CC1 [Loxapine]
[1]; [5]
  Ki: 33 nM

## c1cc2c3c(c1)c1c(n3CCNC2)CCCC1 [Example 1, 1,2,3,4,8,9,10,11-Octahydro-[1,4]diazepino[6,5,4-jk]carbazole]
[4]
  ED50: 20.9 mg/kg
[2]
  EC50: 426 nM
  Emax: 90%

## CC[C@@H](CO)NC(=O)[C@@H]1C=C2c3cccc4c3c(cn4C)C[C@H]2N(C)C1 [Methysergide]
[1]
  Ki: 6.3 nM

## CC1(C)CCc2c(c3cccc4c3n2CCNC4)C1 [Example 4, 9,9,Dimethyl-1,2,3,4,8,9,10,11-octahydro[1,4]diazepino[6,7,1-jk]carbazole]
[1]
  Ki: 243 nM
